The values below come from US3988466A, “Prevention of gastric lesions” (priority 1973, dated 1976).

“And” between values parts separate entries of the source, which are not always exact repeats. Identical values can stand only once. “Also recorded” adds a separate entry of the source. Like-named read-outs stand apart in the source and are kept apart here.

Series [1] can be described thus: pH of amino acids in 1% carboxymethylcellulose solution. It counts as physicochemical. The note with it: 150 mg/ml in 1% carboxymethylcellulose solution. The method, then: The pH values of the amino acids are also determined. The amino acids are separately dissolved or suspended in 1% carboxymethylcellulose solution at a concentration of 150 mg/ml and the pH is measured on an Hitachi pH meter (product of Hitachi Ltd., Japan).

Series [2] concerns aspirin-induced gastric lesions in pylorus-ligated rats. Nature of the series: Effect of various amino acids on aspirin-induced gastric lesions in pylorus-ligated rats (Experiment 3). It counts as in vivo, male Donryu strain rats.
Series [3] relates to yeast-induced fever in rats. Nature of the series: Effect of L-glutamine on antipyretic activity of aspirin in rats (Experiment B). It counts as in vivo, male Wistar strain rats. To be noted: aspirin 200 mg/kg oral. The method, then: In this Experiment, male Wistar strain rats weighing about 90-100 g are treated with 2.5 ml/rat of a suspension of yeast (Brewers Yeast, product of Nutritional Biochem. Co., U.S.A.) in physiological saline (concentration: 250 mg/ml), by subcutaneous injection in the back, according to the method of Gleen et al [Gleen, E. M. et al: J. Pharma. Exp. Therp., 155, 157 (1967)]. The animals are then fasted. The animals showing an increased rectal temperature of 38° C or more after 17 hours are selected for use in experiment. […] As a control, one group is treated with 105 ml of 1% carboxymethylcellulose solution alone. After the treatment, the rectal temperature is measured at the time indicated.

The subject of series [4] is acetic acid-induced writhing response in mice. The series is described as follows: Effect of L-glutamine on analgesic activity of aspirin in mice (Experiment C). Type of series: in vivo, male dd strain mice. To be noted: aspirin 300 mg/kg oral; writhings in 10 minutes. The procedure:
In this Experiment, 3 groups of male dd strain mice weighing 19-21 g are used.
As a control, the third group is treated only with 1% carboxymethylcellulose solution. After a control period of one hour, the animals are treated with 0.2 ml of 0.7% acetic acid solution in physiological saline by intraperitoneal injection, according to the method of Koster et al. [Koster, R. et al: Fed. Proc., 18, 412 (1959)]. Starting 10 minutes after the administration of acetic acid, the number of writhing reaction occurred in 10 minutes is counted.
Background: In writhing tests, fewer writhes than in controls are read as antinociception.

Series [5] has as its system gastric secretion in pylorus-ligated rats. The series is described as follows: Effect of L-glutamine on gastric secretion in pylorus-ligated rats (Experiment 4). It counts as in vivo, male Donryu strain rats. The procedure: In this Experiment, 7 groups of male Donryu strain rats are used. After 24 hours of fasting, the pylorus of the animal is ligated in the same manner as described in Experiment 1. Six groups are treated in the same manner as described in Experiment 1 except for the injection of the solution of pontamine sky blue 6BX in saline. A seventh group (normal) is treated twice with 5 ml/kg of 1% carboxymethylcellulose solution.
After 7 hours of pylorus ligation, the animals are killed and the stomach is removed. The gastric juice is collected and the volume is measured. The gastric juice is titrated to pH 7.4 with 0.1N NaOH using an electromatic pH meter. The concentration of pepsin in the gastric juice is also determined according to Anson's hemoglobin method [Anson, M. L., J. Gen. Physiol.

Where [6] appears, read: Rattus norvegicus, po; read-out: Inhibition.
[7] abbreviates: amino acid 750 mg/kg oral; aspirin by gastric intubation.
Setting [8] is: Rattus norvegicus, po, read-out: Inhibition.
Where [9] appears, read: Control group: aspirin 100 mg/kg without L-glutamine, 7 hours.

As to `CC(C)C[C@H](N)C(=O)O` [L-leucine], the “Amino acid pH” value in series [1] worked out at 7.15. In addition, the inhibition in vivo at 750 mg/kg in series [2] (setting [6]) was found to be 80.5%. The compound further gave a Ulcer index in series [2] (setting [7]) of 8.8±2.8 mm.
On to `NCC(=O)O` [glycine], for which the “Amino acid pH” value in series [1] came out at 6.12. For the same compound, in series [2] (setting [8]), the inhibition in vivo at 750 mg/kg worked out at 85.8%. Further, the Ulcer index in series [2] (setting [7]) turned out to be 6.4±1.7 mm.
With `N[C@@H](Cc1ccc(O)cc1)C(=O)O` [L-tyrosine], the “Amino acid pH” value in series [1] is 7.52 and 7.25. Moreover, the inhibition in vivo at 750 mg/kg in series [2] (setting [8]) was determined as 12.9%. In series [2] (amino acid 750 mg/kg oral), the “effect on aspirin-induced gastric lesions (in words)” value was “no appreciable effect; also recorded: no significant effect”. This compound also yielded a Ulcer index in series [2] (setting [7]) of 39.3±3.0 mm.
As to `CC(C)[C@H](N)C(=O)O` [L-valine], the “Amino acid pH” value in series [1] is 6.80. Also, the inhibition in vivo at 750 mg/kg in series [2] (setting [6]) amounted to 91.8%. The Ulcer index in series [2] (setting [7]) stood at 3.7±1.3 mm.
On to `N[C@@H](CC(=O)O)C(=O)O` [L-aspartic acid], for which the “Amino acid pH” value in series [1] amounted to 3.33. For the same compound, the inhibition in vivo at 750 mg/kg in series [2] (setting [6]) turned out to be 17.3%. The “effect on aspirin-induced gastric lesions (in words)” value in series [2] (amino acid 750 mg/kg oral) is reported as “no appreciable effect; also recorded: no significant effect”. Besides, the Ulcer index in series [2] (setting [7]) was found to be 37.3±6.9 mm.
For the compound `C[C@H](N)C(=O)O` [L-alanine], in series [1], the “Amino acid pH” value is given as 6.45. Also, the inhibition in vivo at 750 mg/kg in series [2] (setting [6]) worked out at 85.1%. The Ulcer index in series [2] (setting [7]) was found to be 6.7±1.5 mm.
For the compound `N[C@@H](Cc1c[nH]cn1)C(=O)O` [L-histidine], the “Amino acid pH” value in series [1] was 7.86. Also, the inhibition in vivo at 750 mg/kg in series [2] (setting [6]) was 95.3%. This compound also came in with a Ulcer index in series [2] (setting [7]) of 2.1±0.8 mm.
With `N[C@@H](CCC(=O)O)C(=O)O` [L-glutamic acid], the “Amino acid pH” value in series [1] came to 3.45. For the same compound, in series [2] (setting [6]), the inhibition in vivo at 750 mg/kg came out at 79.8%. The “effect on aspirin-induced gastric lesions (in words)” value in series [2] (amino acid 750 mg/kg oral) was “good effect”. For the same compound, the Ulcer index in series [2] (setting [7]) came to 9.1±2.6 mm.
On to `CC[C@H](C)[C@H](N)C(=O)O` [L-isoleucine], for which, in series [1], the “Amino acid pH” value was found to be 6.60. In series [2] (setting [6]), the inhibition in vivo at 750 mg/kg is 72.6%. Moreover, the “effect on aspirin-induced gastric lesions (in words)” value in series [2] (amino acid 750 mg/kg oral) was “effective for the prevention of the gastric lesions with high significance”. The compound further returned a Ulcer index in series [2] (setting [7]) of 11.9±2.3 mm.
For `NC(=O)CC[C@@H](N)C(=O)O` [D-glutamine], the “Amino acid pH” value in series [1] amounted to 5.51. Besides, in series [2] (setting [6]), the inhibition in vivo at 750 mg/kg came to 82.9%. This compound showed a Ulcer index in series [2] (setting [7]) of 7.7±1.8 mm.
In the same order, the values of `NC(=O)C[C@H](N)C(=O)O` [L-asparagine] are 5.80, 77.8% and 10.0±2.2 mm.
In the same order, the values of `NC(Cc1c[nH]c2ccccc12)C(=O)O` (racemic) [DL-tryptophan] are 8.27, 39.2% and 27.4±4.3 mm.
Taken in the same sequence, the figures for `C[C@@H](O)[C@H](N)C(=O)O` [L-threonine] were 6.26, 89.6% and 4.7±1.1 mm.
Take `O=C(O)[C@@H]1C[C@@H](O)CN1` [L-hydroxyproline]: the “Amino acid pH” value in series [1] was 7.86. In addition, the inhibition in vivo at 750 mg/kg in series [2] (setting [8]) is 71.6%. Also, in series [2] (amino acid 750 mg/kg oral), the “effect on aspirin-induced gastric lesions (in words)” value is reported as “effective for the prevention of the gastric lesions with high significance”. The same compound displayed a Ulcer index in series [2] (setting [7]) of 12.8±2.6 mm.
With `N=C(N)NCCC[C@H](N)C(=O)O` [L-arginine], the “Amino acid pH” value in series [1] was 11.00. Further, the inhibition in vivo at 750 mg/kg in series [2] (setting [8]) was found to be 98%. Further, in series [2] (amino acid 750 mg/kg oral), the “effect on aspirin-induced gastric lesions (in words)” value is recorded as “prevent the aspirin-induced gastric lesions almost completely; also recorded: best preventive effect”. Further, the Ulcer index in series [2] (setting [7]) is 0.9±0.5 mm.
In series [3] (0 hour), `CC(=O)Oc1ccccc1C(=O)O` [aspirin, reference compound] came in with a Rectal temperature of 38.4±0.1 °C. The same compound gave a Rectal temperature in series [3] (1 hour) of 37.9±0.1 °C. Also, the Rectal temperature in series [3] (2 hours) was determined as 36.7±0.2 °C. Also, in series [3] (4 hours), the Rectal temperature was 36.6±0.1 °C. In series [3] (6 hours), this compound yielded a Rectal temperature of 36.9±0.2 °C. The same compound displayed a Writhing response number in series [4] of 10±1. In series [5] (setting [9]), this compound registered a Gastric juice volume of 12.5 ± 0.5 mL, a Pepsin concentration of 31.8 ± 1.0 mg/mL and a Titrable acidity of 65.1±5.7 mEq/L. The “concentration of pepsin (in words)” value in series [5] (administration of aspirin) is listed as “increased”. Besides, in series [5] (aspirin itself), the “effect on acid output (in words)” value is “considerably reduces the titrable acidity and acid output”; the “effect on titrable acidity (in words)” value is “considerably reduces the titrable acidity”; the “effect on volume of gastric juice (in words)” value was “does not affect the volume of gastric juice”.
For the compound `N[C@@H](Cc1ccccc1)C(=O)O` [L-phenylalanine], the “Amino acid pH” value in series [1] is reported as 6.26. For the same compound, the inhibition in vivo at 750 mg/kg in series [2] (setting [6]) is 52.3%. For the same compound, the “effect on aspirin-induced gastric lesions (in words)” value in series [2] (amino acid 750 mg/kg oral) is “significant inhibition of the lesions”. The same compound had a Ulcer index in series [2] (setting [7]) of 21.5±3.7 mm.
Turning to `O=C(O)[C@@H]1CCCN1` [L-proline], the “Amino acid pH” value in series [1] is 6.32. Besides, the inhibition in vivo at 750 mg/kg in series [2] (setting [6]) turned out to be 77.6%. Moreover, in series [2] (setting [7]), the Ulcer index stood at 10.1±2.3 mm.
With `N[C@@H](CS)C(=O)O` [L-cysteine], the “Amino acid pH” value in series [1] is reported as 5.81. Also, the inhibition in vivo at 750 mg/kg in series [2] (setting [6]) is 10.2%. Moreover, in series [2] (amino acid 750 mg/kg oral), the “effect on aspirin-induced gastric lesions (in words)” value was “no appreciable effect”. The compound also showed a Ulcer index in series [2] (setting [7]) of 40.5±7.6 mm.
On to `CSCC[C@H](N)C(=O)O` [L-methionine], for which, in series [1], the “Amino acid pH” value is on record as 6.09. For the same compound, the inhibition in vivo at 750 mg/kg in series [2] (setting [6]) was 71.2%. Further, the “effect on aspirin-induced gastric lesions (in words)” value in series [2] (amino acid 750 mg/kg oral) is on record as “effective for the prevention of the gastric lesions with high significance”. This compound had a Ulcer index in series [2] (setting [7]) of 13.0±3.3 mm.
Consider `N[C@@H](CO)C(=O)O` [L-serine], for which, in series [1], the “Amino acid pH” value worked out at 6.11. In series [2] (setting [6]), the inhibition in vivo at 750 mg/kg amounted to 93.3%. In series [2] (setting [7]), the Ulcer index was 3.0±1.0 mm.
With `NCCCC[C@H](N)C(=O)O` [L-lysine], the “Amino acid pH” value in series [1] amounted to 10.26. Besides, in series [2] (setting [8]), the inhibition in vivo at 750 mg/kg worked out at 99.1%. Besides, in series [2] (amino acid 750 mg/kg oral), the “effect on aspirin-induced gastric lesions (in words)” value is recorded as “prevent the aspirin-induced gastric lesions almost completely; also recorded: best preventive effect”. The Ulcer index in series [2] (setting [7]) worked out at 0.4±0.2 mm.
`N[C@@H](CSSC[C@H](N)C(=O)O)C(=O)O` [L-cystine]: the “Amino acid pH” value in series [1] came to 6.62. In addition, the inhibition in vivo at 750 mg/kg in series [2] (setting [6]) stood at 7.8%. For the same compound, the “effect on aspirin-induced gastric lesions (in words)” value in series [2] (amino acid 750 mg/kg oral) is “no appreciable effect”. The Ulcer index in series [2] (setting [7]) is listed as 41.6±3.9 mm.
